# Earlier results, collected in patent publication US20210023041A1, “FORMULATIONS AND COMPOSITIONS OF DOCETAXEL” (Zhuhai Beihai Biotech Co., Ltd., priority 2018, published 2021).
smiles,measurement,setting,value
CC(=O)O[C@@]12CO[C@@H]1C[C@H](O)[C@@]1(C)C(=O)[C@H](O)C3=C(C)[C@@H](OC(=O)[C@H](O)[C@@H](NC(=O)OC(C)(C)C)c4ccccc4)C[C@@](O)([C@@H](OC(=O)c4ccccc4)[C@H]21)C3(C)C [Docetaxel],solubility in water,,practically insoluble in water
same,in vitro binding to plasma proteins,plasma proteins; in three cancer patients,approximately 97%
same,protein bound,"plasma proteins; in vitro studies, mainly to α1-acid glycoprotein, albumin, and lipoproteins",about 94%
same,potency in inhibiting microtubule depolymerization relative to paclitaxel,microtubule,twice as potent as paclitaxel
